This data set is described as follows: Human HepG2 cell viability assay in 384 well format. Type of data set: toxicity, cell-based. Set-up: dose 125 nL, time 70.5 hour; cytotoxicity at 70.5 h: concentration not given beside the values. The settings on record: HepG2 cells, read-out: Inhibition.
For `Cc1c(CC(=O)N2CCN(CC(F)(F)F)CC2)nnn1-c1ccccc1`, the cytotoxicity at 70.5 h is -11.3%.
For `NS(=O)(=O)CCNC(=O)C1(c2ccc(Br)cc2)CC1` the value was -10.5%; for `Cc1cc(CN2CC[C@H]3C[C@@H](C)O[C@@H]3C2)no1`, -7.88%; for `Cn1cc(N2CCC3(CCCN(Cc4ccoc4)C3)C2=O)cn1` (centres undefined), -6.63%.
For `O=C(c1ccco1)N1C[C@H]2CN(Cc3cccc(F)c3)C(=O)[C@H]2C1` the value was -7.79%; for `O=C(c1ccnnc1)N1C[C@H]2CN(Cc3cccc(F)c3)C(=O)[C@H]2C1`, -13.7%; for `Cc1cc(CN2CC[C@H]3C[C@@H](c4nccs4)O[C@@H]3C2)no1`, -2.76%.
For `C[C@@H]1C[C@@H]2CCN(Cc3ccncc3)C[C@H]2O1` the value was -3.23%; for `Cc1noc(C)c1CN1CC[C@H]2C[C@H](c3ccncn3)O[C@@H]2C1`, -8.76%.
As to `COc1cc(N2CC[C@H](O)[C@@H]2Cc2ccccc2)ncn1`, the cytotoxicity at 70.5 h turned out to be 16.6%.
For `CC(C)Nc1ncnc2c1CCN(C(=O)CCc1ccccc1)CC2` the value was -3.23%; for `CC(C)Nc1ncnc2c1CCN(C(=O)N1CCOCC1)CC2`, 10.6%; for `CN(C)C(=O)N1CCC2(CC1)C(c1cnn(C)c1)CC(=O)N2C` (centres undefined), -7.08%.
For the compound `Cc1cccc(C(=O)N2C[C@H](NS(C)(=O)=O)[C@@H]3OCCC[C@@H]32)n1`, the cytotoxicity at 70.5 h is -10.2%.
The figure for `CN1CCN(Cc2ccsc2)Cc2cccnc21` is -6.75%.
The figure for `CN1CCN(Cc2cccnc2)Cc2cccnc21` is -7.13%.
For `CC(C)Nc1ncnc2c1CCN(C(=O)c1ccc[nH]1)CC2` the value was -9.63%.
Turning to `CS(=O)(=O)N[C@@H]1CN(C(=O)c2cnccn2)[C@@H]2CCCO[C@@H]21`, the cytotoxicity at 70.5 h amounted to 29.4%.
Turning to `COCCN1CCN(Cc2ccoc2)Cc2cccnc21`, the cytotoxicity at 70.5 h was found to be 6.66%.
The figure for `CC(C)Nc1ncnc2c1CCN(C(=O)Cc1cccs1)CC2` is -7.55%; for `CN1CCN(Cc2ccncc2)Cc2cccnc21` it is -9.78%.
For `CN1C(=O)CC(c2cnn(C)c2)C12CCN(C(=O)c1ccno1)CC2` (centres undefined) the value was -12%.
For `COc1cc(N2CC[C@H](O)[C@@H]2Cc2cccnc2)ncn1` the value was -10.8%; for `Cc1cccc(COC[C@]23COC[C@H]2CN(c2ncccn2)C3)n1`, -10.2%.
In the case of `O=C(c1ccnnc1)N1C[C@@H]2COC[C@]2(COCC2CC2)C1`, the cytotoxicity at 70.5 h is -7.55%.
The figure for `O=C(c1cccs1)N1C[C@H]2CCC[C@@]2(COCC2CCOCC2)C1` is 23.2%; for `CNC(=O)[C@@]12CCO[C@@H]1CCN(Cc1c(C)noc1C)C2` it is -6.35%.
The figure for `CCC1=N[C@@]2(CC[C@@H]3CN(C(=O)NCc4ccccc4C)C[C@@H]32)C(=O)N1` is -11.1%; for `Cc1cnc(C(=O)N2CCC3(CC2)CN(c2ccccn2)CCO3)cn1` it is -6.44%; for `CC(C)NC(=O)C1CN(C(=O)NCc2ccccc2)CC12CCOCC2` (centres undefined) it is 1.12%.
Consider `COCCN1CCC12CCN(C(=O)c1ccc3[nH]ccc3c1)C2` (centres undefined), for which the cytotoxicity at 70.5 h was -7.37%.
The figure for `COCCNC(=O)c1cc2c(c3ccccc3n2C)n1C(=O)N(C)C` is -9.07%; for `O=C(NC1CCC1)C1=NOC2(CCN(Cc3ccc(F)cc3)C2)C1` (centres undefined) it is 14.1%.
The figure for `CCNC(=O)c1c2c(N3CCN(C)CC3)ncnc2n2ccccc12` is 2.84%; for `COc1cccc2c1OCC(C(=O)N1CCN(CCS(C)(=O)=O)CC1)C2` (centres undefined) it is -4.99%.
`COc1ccccc1-n1nc(CC(C)C)nc1CSc1nnc(N)s1`: the cytotoxicity at 70.5 h was -15.9%.
For `CN1CCC(Cc2noc(CCc3nc4ccccc4nc3O)n2)CC1` the value was -7.26%.
For `O=C(O)[C@@H]1CN(C2CCCCC2)C[C@H]1C1CC1` the value was -13.9%.
For `CCCc1ccc(CN2CCC3(CC2)CNC(=O)C3)o1` the value was 21.8%; for `CC(C)c1cc(CN(C)C(=O)CN2CCNC2=O)no1`, 18.6%.
As to `OCCN(Cc1ccccc1)Cc1nc(-c2ccc3c(c2)OCO3)no1`, the cytotoxicity at 70.5 h was -9.5%.
For `O=C(O)c1cc(-c2ccncc2)cc(S(=O)(=O)NCc2ccccn2)c1` the value was -4.27%; for `Cc1csc(CNc2nc3c(s2)c(C)nn3C)n1`, -4.74%; for `O=C(NCC(F)F)c1ccc(S(=O)(=O)NCCc2c[nH]cn2)cc1`, -6.02%.
The figure for `CCOC(=O)CC1CCCCN1C(=O)c1cc(=O)[nH]c(=O)[nH]1` (centres undefined) is 11.7%.
The figure for `Cc1ccccc1CN1C[C@@H](CN(C)CCO)[C@@H](CO)C1` is -11.6%.
In the case of `COCCC(=O)N1C[C@H]2CC[C@@H]1CN(C1Cc3ccccc3C1)C2`, the cytotoxicity at 70.5 h is -10%.
For `O=C(C1CCOCC1)N1CC[C@@](O)(c2ccccc2)[C@H]2CCCC[C@@H]21` the value was 24.9%.
For `CCC(CO)N(Cc1cccc(-n2cccn2)c1)Cc1cccs1` (centres undefined) the value was -4.44%.
As to `COCCN1CCC(CN(Cc2ccncc2)C2CCCCC2)CC1`, the cytotoxicity at 70.5 h was -6.59%.
As to `Cc1nc2c(c(N3CCCOCC3)n1)CCN(c1nccs1)CC2`, the cytotoxicity at 70.5 h is -6.82%.
For `CC(O)Cc1cn(CC2CCN(c3nccc4occc34)CC2)nn1` (centres undefined) the value was 4.74%; for `O=C(CCCn1cncn1)N1CCCC1c1nc(-c2ccccc2)no1` (centres undefined), -1.82%.
As for `COc1cc(N[C@@H](Cc2ccccc2)C(N)=O)ncn1`, the cytotoxicity at 70.5 h is -5.19%.
The figure for `Fc1cccc(-c2noc3c2CN(Cc2cncn2C2CC2)CC3)c1` is -11.3%; for `CN(C)S(=O)(=O)N1C[C@@H]2CC[C@H](C1)N(CCC(=O)NCc1ccco1)C2` it is 2.74%.
For `CC(C)N1CCOC(CC(=O)N2CCCN(Cc3ccncc3)CC2)C1` (centres undefined) the value was 15.7%.
For `CCc1ccc(CN2CCN(C)C3(CCC(=O)N(CC4CC4)CC3)C2)o1` (centres undefined) the value was -1.68%; for `O=C(CSc1ccccn1)N1CCC(OCc2cccnc2)CC1`, -18.6%; for `O=C(Cc1ccccc1)N1CCC2(CC1)COCCN2CC1CC1`, -9.82%.
As to `CNC(=O)CN1CCOCC12CCN(C(=O)c1ccc(C)cc1)CC2`, the cytotoxicity at 70.5 h was -6.86%.
For `O=C(C1CCOCC1)N1CCC2(CCN(Cc3nccs3)CC2)CC1` the value was 9.62%.
Turning to `CCOCC1CN(C(=O)c2cscn2)Cc2cn(C)nc21` (centres undefined), the cytotoxicity at 70.5 h was -4.69%.
For `CCOCC1CN(C(=O)c2cnccn2)Cc2cnn(CC3CC3)c21` (centres undefined) the value was -10.4%.
For `CCOCC1CN(C(=O)c2ccncn2)Cc2cnn(CC)c21` (centres undefined) the value was -11.7%; for `O=C(c1ccnnc1)N1C[C@H]2CCC[C@@]2(COCc2ccccn2)C1`, -3.81%.
The figure for `CN1C(=O)CC(c2cnn(C)c2)C12CCN(C(=O)c1ccncc1)CC2` (centres undefined) is -6.57%; for `Cc1nc(COC[C@@H]2CCC[C@@]23CN(C)CCO3)cs1` it is 4.91%; for `O=C1[C@H]2CN(Cc3cccs3)C[C@H]2CN1c1ccsc1` it is -5.8%.
`CC(C)Nc1ncnc2c1CCN(C(=O)c1ccccc1F)CC2`: the cytotoxicity at 70.5 h is -3.35%.
For `Cc1noc(C)c1CN1CC[C@H]2OCC[C@@]2(C(=O)N2CCCC2)C1` the value was -5.9%; for `Cc1noc(C)c1CN1CC[C@H]2OCC[C@@]2(C(=O)N2CCOCC2)C1`, -4.59%; for `c1cn2c(n1)CN(Cc1ccsc1)CC(Cn1cncn1)C2` (centres undefined), -11.2%.
The figure for `Cc1noc(C)c1CN1CC[C@H]2OCC[C@@]2(C(=O)NCC2CC2)C1` is -5.64%; for `COCCNC(=O)[C@@]12CCO[C@@H]1CCN(Cc1cc(C)on1)C2` it is 7.02%; for `CC(C)N1CCO[C@H]2CN(C(=O)c3ccsc3)C[C@H]21` it is -7.23%.
With `O=C(c1cccc(F)c1)N1CCC2(CC1)CN(c1ccccn1)CCO2`, the cytotoxicity at 70.5 h is -8.22%.
For `CCOCC1CN(Cc2cccs2)Cc2nn(C)cc21` (centres undefined) the value was -6.21%.
With `Fc1cccc(CN2C[C@@H]3COC[C@]3(COCc3ccncc3)C2)c1`, the cytotoxicity at 70.5 h was -1.32%.
The figure for `Cn1cc(N2CC3(CCN(Cc4cccnc4)CC3)OCC2=O)cn1` is -3.89%; for `c1coc(CN2C[C@@H]3OCCN(CC4CCCO4)[C@@H]3C2)c1` (some centres undefined) it is -11.5%.
As for `COc1cc(N2C[C@@H]3COC[C@]3(COCc3ccncc3)C2)ncn1`, the cytotoxicity at 70.5 h worked out at 8.15%.
`Cc1noc(C)c1CN1Cc2nccn2CC(CN2CCOCC2)C1` (centres undefined): the cytotoxicity at 70.5 h was -11.8%.
For `c1ccc(NCc2cnc3n2CCN(CC2CCOC2)CC3)nc1` (centres undefined) the value was -8.55%.
Turning to `c1cnc(N2CC3(CCN(Cc4ccncc4)C3)C2)nc1`, the cytotoxicity at 70.5 h is -6.13%.
Consider `Fc1cnc(N2CCCC3(CCN(Cc4ccoc4)C3)C2)nc1` (centres undefined), for which the cytotoxicity at 70.5 h was 11.2%.
For `CN1CCN(Cc2cccc(C#N)c2)Cc2cccnc21` the value was -7.78%; for `COc1cc(N2C[C@@H]3COC[C@]3(COc3ncccc3F)C2)ncn1`, -9.91%.
As for `Cc1ccc2c(n1)N(Cc1ccncc1)CCN(S(C)(=O)=O)C2`, the cytotoxicity at 70.5 h was -10%.
For `c1cncc(-c2nnn3c2COCC(CNC2CCOCC2)C3)c1` (centres undefined) the value was 12.3%; for `c1cncc(-c2nnn3c2COCC(CNCC2CCOCC2)C3)c1` (centres undefined), 8.92%; for `c1cnc(N2CCC3(CCN(Cc4cccnc4)CC3)CC2)nc1`, -8.42%.
The figure for `Cc1ccc2c(n1)N(Cc1cccnc1)CCN(C1CCOCC1)C2` is 2.27%; for `CN(Cc1ccncc1)C1COC2(CCN(Cc3nccn3C)CC2)C1` (centres undefined) it is -8.93%.

Values taken from ChEMBL document CHEMBL3507680, “University of Dundee, Gates Library screen for HepG2 cell viability”.
